For 72 compounds, EC50, IC50 and outcome results are on record in PubChem BioAssay AID179 (DTP/NCI, 2004).

Where “and” joins values, the source holds several entries; their conditions need not be identical. Equal values may be shown once. Calls of active or inactive are those of the source.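 Rule for the calls: active = compounds giving half or more protection of infected cells from virus-caused growth loss, again on retest; inactive = the rest.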

This assay deals with CEM cells HIV-1 protection, formazan growth assay. The assay is described as follows: NCI AIDS Antiviral Assay. The following applies: for IC50: measured here: growth of uninfected CEM cells. The gist of the method: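 Screen of anti-HIV-1 activity in human CEM cells using a formazan-based growth measurement at five drug concentrations. Hits with 50% or greater protection were repeated, and confirmation required reproducible complete protection.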

In the case of `Cc1c(-c2ccccc2)c(=O)oc2c3c(ccc12)OC(C)(C)[C@H](OC(=O)C12CCC(C)(C(=O)O1)C2(C)C)[C@@H]3OC(=O)C12CCC(C)(C(=O)O1)C2(C)C` (some centres undefined), the EC50 is more than 100 µM and the concentration for half-maximal inhibition (IC50) is more than 100 µM.
For `COc1ccccc1/C=C1/NC(=S)NC1=O`, the EC50 was more than 200 µM and the IC50 was more than 200 µM.
As for `CC1OC(OC2C(O)C(O)C(N=C(N)N)C(O)C2N=C(N)N)C(OC2OC(CO)C(O)C(O)C2N(C)C=N)C1(O)CO` (centres undefined), the outcome was inactive.
Consider `COc1ccc2nc3ccc(OC)cc3c(SCCO)c2c1`, for which the EC50 was more than 200 µM and the IC50 turned out to be 8.51 µM.
On the same counts, the results for `CC12CCC(CC1(Cl)Cl)C2` (centres undefined) are more than 200 µM and more than 200 µM.
In the case of `Cn1c2c(c3ccccc31)CCN1C(=O)CCC21` (centres undefined), the EC50 was more than 537 µM and the IC50 is 288 µM.
Regarding `CC(C(=O)OCc1ccccc1)(c1ccco1)N1C(=O)OC(c2ccccc2)C1c1ccccc1` (centres undefined), the EC50 is more than 200 µM and the IC50 worked out at 13.5 µM.
On the same counts, the results for `C=CC1(O)CC(n2cc(C)c(=O)[nH]c2=O)OC1CO` (centres undefined) are more than 200 µM and more than 200 µM.
In the case of `CC(=O)/C(=C/c1ccc(Br)cc1)C(=O)c1ccccc1`, the result was inactive.
In the case of `COc1cc2cnc3c4cc(OC(C)C)c(OC)cc4ccc3c2cc1OC`, the outcome was inactive.
Take `CN1CCC23c4c5ccc(O)c4OC2C(=NN=C2CCC4(O)C6Cc7ccc(O)c8c7C4(CCN6C)C2O8)CCC3(O)C1C5` (centres undefined): the EC50 is more than 200 µM and the IC50 is 105 µM.
Consider `CNc1ccccc1S(=O)(=O)c1ccccc1Cl`, for which the EC50 is more than 63.1 µM and the IC50 is 40.7 µM.
`COc1cc(/C=C2\SC(=S)N(C=C3C(=O)NC(=O)NC3=O)C2=O)cc(OC)c1OC`: the EC50 was more than 200 µM and the IC50 is 23.4 µM.
On the same counts, the results for `CCOC(=O)C(O)(NC(=O)c1ccc(F)cc1)C(F)(F)F` (centres undefined) are more than 200 µM and more than 200 µM.
In the case of `CC1=C(C)C2(C#N)C(=O)N3C(=NC(c4ccccc4)NC3c3ccccc3)C2(C#N)C(c2ccccc2)N1` (centres undefined), the EC50 was more than 100 µM and the IC50 is more than 100 µM.
For `Cn1cncc1CC1COC(=O)C1C(O)c1ccccc1` (centres undefined), the EC50 was more than 200 µM and the IC50 is more than 200 µM.
As to `CC(=O)N(/N=C\c1ccc([N+](=O)[O-])cc1)c1ccccc1`, the EC50 is more than 126 µM and the IC50 is more than 126 µM.
As for `O=S(Cc1ccccc1)/C(=C/NC(=S)Nc1ccccc1)c1ccccc1` (centres undefined), the EC50 was 182 µM and the IC50 is more than 200 µM.
As to `CC(C(=O)O)n1c(=O)ssc1=O` (centres undefined), the concentration giving a half-maximal response (EC50) was 63.1 µM and the IC50 is 123 µM.
`CCOC(=O)[C@H]1Nc2ccc([N+](=O)[O-])cc2C2c3ccccc3CC21` (some centres undefined): the EC50 was more than 11.2 µM and the IC50 is more than 11.2 µM.
As for `Cc1cc(C)nc(/C(=N\NC(N)=O)C(=O)Nc2nc3ccc(C)cc3s2)c1`, the EC50 is more than 661 µM and the IC50 was more than 661 µM.
With `O=C(O)CCCc1cc2c(s1)-c1cccc3cccc-2c13`, the EC50 was more than 33.9 µM and the half-maximal inhibitory concentration (IC50) was more than 33.9 µM.
On to `Cc1cc(N(CCC#N)S(C)(=O)=O)ccc1C=Nc1ccc(C(=O)NN2C(=O)/C(=C/c3ccc(N(CCC#N)CCC#N)cc3C)N=C2c2cc([N+](=O)[O-])ccc2Cl)cc1`, for which the EC50 was more than 42.7 µM and the IC50 is more than 42.7 µM.
Regarding `CC(CCC(=O)O)c1ccc(Br)cc1` (centres undefined), the outcome was inactive.
In the case of `CC(=O)[O-].[Zn].c1ccc(/C(=N\Nc2ccccn2)c2ccccn2)cc1`, the result was inactive.
As for `O=C1c2ccccc2C(=C2c3ccccc3C(=O)c3ccccc32)c2ccccc21`, the outcome was inactive.
Take `CCCC(=O)O[C@@H]1C(C)C2(O)C3C=C(C)C(=O)[C@@]3(O)CC(CO)=C[C@H]2C2C(C)(C)C21OC(=O)CCC` (some centres undefined): the result was inactive.
Consider `CC1(c2ccc3ccccc3c2)OC(=O)c2cccc(F)c21` (centres undefined), for which the result was inactive.
As to `CCOC(=O)C1(C(=O)OCC)NC(=O)CC1CC` (centres undefined), the outcome was inactive.
As to `CCN(CC)CCCCC1CCN(CC(=O)N2c3cc(Cl)ccc3NC(=O)CC2C)CC1` (centres undefined), the EC50 was more than 251 µM and the IC50 turned out to be 66.1 µM.
As to `O=C(Cc1nc2ccccc2s1)C(=O)Nc1ccc(Cl)cc1Cl`, the result was inactive.
`CC1C(=O)N(C)C2(CO)C(=O)O[C@H](C)C12O` (some centres undefined): the result was inactive.
Regarding `CC(C)OP(=O)(OC(C)C)C([CH2][Sn]([CH3])([CH3])[Cl])P(=O)(OC(C)C)OC(C)C`, the EC50 was more than 457 µM and the IC50 was 8.32 µM.
As to `O=C(O)c1ccc(N=Nc2ccc(CCc3ccc(N=Nc4ccc(C(=O)O)cc4O)cc3S(=O)(=O)O)c(S(=O)(=O)O)c2)c(O)c1`, the EC50 is 19.5 µM and the IC50 was determined as 234 µM.
As to `N#CC(C(=O)C(=O)Nc1c(Cl)cccc1Cl)c1ccccc1` (centres undefined), the result was inactive.
`O=C1C/C(=C\O)C(=O)c2ccccc2N1`: the EC50 is 0.186 µM and the IC50 is more than 200 µM.
On the same counts, the results for `COC(=O)c1c2c(cc3c1CC1(C3)Cc3cc4c(c(C(=O)OC)c3C1)CCCC4)CCCC2` are more than 200 µM and more than 200 µM.
Turning to `CC(C)(CN1CCCCC1)C(=O)CC(SCCN)c1ccc(Cl)cc1` (centres undefined), the EC50 was more than 234 µM and the IC50 amounted to 12.6 µM.
Regarding `O=C1CS(=O)c2ccccc2N1` (centres undefined), the EC50 was more than 372 µM and the IC50 is more than 372 µM.
Regarding `COc1cccc(N2C(=O)/C(=C/c3ccc(N(CCC#N)CCC#N)cc3)N=C2c2cc([N+](=O)[O-])ccc2Cl)c1`, the EC50 is more than 9.33 µM and the IC50 was more than 9.33 µM.
Consider `O=C(c1nc2ccc([N+](=O)[O-])cc2[nH]c1=O)C(O)c1ccc([N+](=O)[O-])cc1` (centres undefined), for which the EC50 is 58.9 µM and the IC50 was 110 µM.
With `CC(=O)OC(C)(C)/C=C/C(=O)[C@](C)(O)[C@H]1[C@H](O)C[C@@]2(C)[C@@H]3CC=C4[C@@H](C[C@H](O)C(=O)C4(C)C)[C@]3(CO)C(=O)C[C@]12C`, the EC50 is more than 4.37 µM and the IC50 worked out at 0.129 µM.
Regarding `Cc1cccc2c1C(=O)OC2(C)c1cccc2ccccc12` (centres undefined), the result was inactive.
For the compound `Cc1c2cc(O)c(=O)cc-2oc2cc(O)c(O)cc12`, the concentration giving a half-maximal response (EC50) is more than 200 µM; the IC50 was 12.6 µM and 39.8 µM.
For the compound `O=S1(=O)c2ccccc2C(O)(c2ccccc2)c2cc3ccccc3n21` (centres undefined), the EC50 was more than 27.5 µM and the IC50 is more than 27.5 µM.
As to `CCOC(=O)N1CCN(c2c(C)nc(C)[nH]c2=O)CC1`, the EC50 is more than 200 µM and the IC50 is more than 200 µM.
For `COc1ccc2c(c1O)C13CCN(C)C(C2)C12C=CC(=O)C3c1c(O)ccc(O)c12` (centres undefined), the EC50 is more than 200 µM and the IC50 stood at 2.95 µM.
As for `CCc1cccc(C(C)C)c1NC(=O)/C(=N\NC(N)=O)C(C(=O)OC)c1cnc2ccccc2n1` (centres undefined), the result was inactive.
Consider `O=c1c2cc3c(cc2[nH]c2ncccc12)OCO3`, for which the EC50 was more than 200 µM and the 50% inhibitory concentration (IC50) came to 145 µM.
For the compound `CC1=NN(C(=O)Cc2ccccc2)C(=O)/C1=C\c1ccccc1O`, the EC50 was more than 22.4 µM and the IC50 was more than 22.4 µM.
As for `CCOC(=S)/C=C/c1ccccc1`, the outcome was inactive.
As to `O=C(O)Cc1ccc(Nc2nc3cc(C(F)(F)F)ccc3nc2C(=O)O)cc1`, the EC50 is more than 200 µM and the 50% inhibitory concentration (IC50) was more than 200 µM.
On to `[O-][n+]1nc2ccccc2c2ccccc21`, for which the EC50 is more than 347 µM and the concentration for half-maximal inhibition (IC50) was determined as 141 µM.
On the same counts, the results for `COc1ccc(C2C(C#N)=C(S)N(C3OC(CO)C(O)C(O)C3O)C(C)=C2C(C)=O)cc1` (centres undefined) are more than 200 µM and 89.1 µM.
Consider `Cc1ccc2cc([N+](=O)[O-])c3ccc(C)nc3c2n1.Cc1ccc2cc([N+](=O)[O-])c3ccc(C)nc3c2n1.O=C1OC(C(O)C[O-])C(O)=C1O.[Cu+]`, for which the EC50 was more than 12.6 µM and the IC50 was 1.82 µM.
Turning to `CCOC(=O)c1c(-c2ccc(Cl)cc2)c(C#N)c(=S)n(C2OC(COC(C)=O)C(OC(C)=O)C(OC(C)=O)C2OC(C)=O)c1-c1ccccc1` (centres undefined), the EC50 is more than 200 µM and the IC50 turned out to be 77.6 µM.
On the same counts, the results for `CCOC(=O)/C(=N/Nc1ccc(Cl)cc1)N1C(=S)C=C(C)NN(C)C1=S` are more than 200 µM and more than 200 µM.
Consider `O=C(c1ccco1)N(C(=S)N1CCN(c2ccccn2)CC1)c1ccccc1`, for which the EC50 is more than 47.9 µM and the IC50 stood at 46.8 µM.
Take `O=CC(=O)C(C(=O)O)[N+](=O)[O-]` (centres undefined): the EC50 is more than 200 µM and the IC50 was more than 200 µM.
Take `Nc1c(Br)cc2c([nH]c(=O)c3cc(Br)ccc32)c1Br`: the EC50 is more than 200 µM and the IC50 was 38.9 µM.
With `Cc1cn(C2CC(N=[N+]=[N-])C(COC(=O)C3CNC(=O)N3)O2)c(=O)[nH]c1=O` (centres undefined), the result was active and the IC50 was 93.3 µM.
On to `CC1=CCC(C)=Nc2nc3ccccc3n21`, for which the EC50 is more than 200 µM and the IC50 was more than 200 µM.
Regarding `Cc1ccc2c(CC(=O)O)cc(=O)oc2c1`, the EC50 was more than 229 µM and the IC50 stood at 38.9 µM.
`O=C(Nc1sccc1S(=O)(=O)c1ccccc1)c1ccccc1`: the EC50 was more than 20 µM and the IC50 worked out at 11.7 µM.
`COc1c(C)c(O)c2c(=O)cc(-c3ccccc3)oc2c1C`: the EC50 was more than 63.1 µM and the IC50 was more than 63.1 µM.
`N#C/C(=C\c1ccc(Cl)cc1)c1ccc(C(=O)O)cc1`: the EC50 was more than 200 µM and the IC50 was 110 µM.
Take `CC(=O)/C(=C/N1CC(=O)NC1=S)C(=O)Nc1ccccc1C`: the EC50 was more than 200 µM and the IC50 is more than 200 µM.
For the compound `Oc1cccc2c(Br)ccnc12`, the EC50 is more than 20 µM and the IC50 is 5.13 µM.
On the same counts, the results for `Cn1c(=O)cc(O)c2ccccc21` are more than 200 µM and more than 200 µM.
Turning to `O=C1CSC(c2ccccc2O)N1c1ccc(Oc2ccc(Cl)cc2)c(Cl)c1` (centres undefined), the EC50 is more than 100 µM and the half-inhibitory concentration (IC50) amounted to 24 µM.
Regarding `Cc1nc2c(ccc3c(C)c(C)c(C)nc32)c(C)c1C`, the EC50 was more than 20 µM and the IC50 stood at 0.977 µM.
On to `CN(C)c1ccc(/C=C/C=C(/C#N)c2ccccc2)cc1`, for which the EC50 was more than 100 µM and the IC50 is 12.3 µM.

The EC50 is the midpoint of the concentration-response curve. The IC50 is the concentration needed to halve the response being measured. High values mean weaker potency in that assay, low ones greater potency in that assay.
